Data published in patent publication EP3074389B1, “QUINOLINE DERIVATIVES AS BROMODOMAIN INHIBITORS” (Gilead Sciences, Inc., priority 2013, dated 2015).

Columns and labels:
BRD4 domain 1 = BRD4 domain 1 (Homo sapiens, UniProt O60885); experiment: Kd determination of inhibitors binding to BRD4 domain 1 (Epic label-free platform); conditions: direct binding to immobilized BRD4 domain 1; tripling dilution series from 20µM; about 1hr equilibrium; rounded to whole number; read-out: Epic Kd BRD41
How it was run: (§1)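 Label-free resonant waveguide (Epic) direct binding to BRD4 domain 1 or domain 2 amine-coupled via EDC/Sulfo-NHS at 150 µg/mL in 20 mM HEPES pH 7. Binding response taken as wavelength shift (pm) between baseline and second read; Kd from fit to a single-site binding isotherm.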

BRD4 domain 2 = BRD4 domain 2 (Homo sapiens, UniProt O60885); experiment: Kd determination of inhibitors binding to BRD4 domain 2 (Epic label-free platform); conditions: direct binding to immobilized BRD4 domain 2; tripling dilution series from 20µM; about 1hr equilibrium; rounded to whole number
How it was run: as §1

Row | Kd (BRD4 domain 1) [µM] | Kd (BRD4 domain 2) [µM] | Compound
1 | 0.483 | 0.429 | COCCNc1cc2c(S(=O)(=O)N[C@@H]3CCC[C@H]3O)cc(-c3c(C)noc3C)cc2[nH]c1=O [Compound 85, 7-(3,5-dimethylisoxazol-4-yl)-N-((1R,2R)-2-hydroxycyclopentyl)-3-((2-methoxyethyl)amino)-2-oxo-1,2-dihydroquinoline-5-sulfonamide]
2 | 16.2 | 6.84 | Cc1noc(C)c1-c1cc(S(=O)(=O)N[C@@H]2CCC[C@H]2C(=O)NCc2nccn2C)c2cccnc2c1 [Compound 42, (1R,2R)-2-(7-(3,5-dimethylisoxazol-4-yl)quinoline-5-sulfonamido)-N-((1-methyl-1H-imidazol-2-yl)methyl)cyclopentan ecarboxamide]
3 | 0.85 | 0.526 | CNc1cc2c(S(=O)(=O)NC3CCCC3)cc(-c3c(C)noc3C)cc2[nH]c1=O [Compound 62, N-cyclopentyl-7-(3,5-dimethylisoxazol-4-yl)-3-(methytamino)-2-oxo-1,2-dihydroquinoline-5-sulfonamide]
4 | 15.8 | > 20 | Cc1noc(C)c1-c1cc(S(=O)(=O)N[C@@H]2C[C@H]2c2ccccc2)c2cccnc2c1 [Compound 12, 7-(3,5-dimethylisoxazol-4-yl)-N-((1R,2S)-2-phenylcyclopropyl)qui noline-5-sulfonamide]
5 | 0.897 | 0.493 | Cc1noc(C)c1-c1cc(S(=O)(=O)NC2CCCC2)c2cc(NC(CO)CO)c(=O)[nH]c2c1 [Compound 92, N-cyclopentyl-3-((1,3-dihydroxypropan-2-yl)amino)-7-(3,5-dimethylisoxazol-4-yl)-2-oxo-1,2-dihydroquinoline-5-sulfonamide]
6 | 1.73 | 1.39 | Cc1noc(C)c1-c1cc(S(=O)(=O)NC2CC2)c2ccc(N3CCNCC3)nc2c1 [Compound 80, N-cyclopropyl-7-(3,5-dimethylisoxazol-4-yl)-2-(piperazin-1-yl)quinoline-5-sulfonamide]
7 | 0.936 | 0.658 | Cc1noc(C)c1-c1cc(S(=O)(=O)NC2CCCC2)c2cc(NC(C)(C)CO)c(=O)[nH]c2c1 [Compound 97, N-cyclopentyl-7-(3,5-dimethylisoxazol-4-yl)-3-((1-hydroxy-2-methylpropan-2-yl)amino)-2-oxo-1,2-dihydroquinoline-5-sulfonamide]
8 | 0.348 | 0.555 | Cc1noc(C)c1-c1cc(S(=O)(=O)NC2CCCC2)c2cc(-c3ccc(F)cc3)c(=O)[nH]c2c1 [Compound 28, N-cyclopentyl-7-(3,5-dimethylisoxazol-4-yl)-3-(4-fluorophenyl)-2-oxo-1,2-dihydroquinoline-5-sulfonamide]
9 | 0.933 | 0.611 | Cc1noc(C)c1-c1cc(S(=O)(=O)NC2CCCC2)c2cc(N3CCNCC3)c(=O)[nH]c2c1 [Compound 56, N-cyclopentyl-7-(3,5-dimethylisoxazol-4-yl)-2-oxo-3-(piperazin-1-yl)-1,2-dihydroquinoline-5-sulfonamide]
10 | 4.85 | 3.21 | Cc1noc(C)c1-c1cc(S(=O)(=O)NC2CCCC2)c2cc(N3CCOC3=O)c(=O)[nH]c2c1 [Compound 64, N-cyclopentyl-7-(3,5-dimethylisoxazol-4-yl)-2-oxo-3-(2-oxooxazolidin-3-yl)-1,2-dihydroquinoline-5-sulfonamide]
11 | 4.09 | 3.55 | Cc1noc(C)c1-c1cc(S(=O)(=O)N[C@@H]2CCC[C@H]2O)c2cccnc2c1 [Compound 26, 7-(3,5-dimethylisoxazol-4-yl)-N-((1R,2R)-2-hydroxycyclopentyl)q uinoline-5-sulfonamide]
12 | 0.867 | 0.634 | Cc1noc(C)c1-c1cc(S(=O)(=O)NC2CCCC2)c2cc(C#N)c(=O)[nH]c2c1 [Compound 31, 3-cyano-N-cyclopentyl-7-(3,5-dimethylisoxazol-4-yl)-2-oxo-1,2-dihydroquinoline-5-sulfonamide]
13 | 8.23 | 1.96 | Cc1noc(C)c1-c1cc(S(=O)(=O)NC2CCCC2)c2cc(C(=O)O)c(=O)[nH]c2c1 [Compound 70, 5-(N-cyclopentylsulfamoyl) -7-(3,5-dimethylisoxazol-4-yl)-2-oxo-1,2-dihydroquinoline-3-carboxylic acid]
14 | 0.652 | 0.56 | Cc1noc(C)c1-c1cc(S(=O)(=O)NC2CCCC2)c2cc(NCCN3CCOCC3)c(=O)[nH]c2c1 [Compound 90, N-cyclopentyl-7-(3,5-dimethylisoxazol-4-yl)-3-((2-morpholinoethyl)amino)-2-oxo-1,2-dihydroquinoline-5-sulfonamide]
15 | 0.885 | 1.11 | Cc1noc(C)c1-c1cc(S(=O)(=O)NC2CCCC2)c2ccc(N)nc2c1 [Compound 17, 2-amino-N-cyclopentyl-7-(3,5-dimethylisoxazol-4-yl)quinoline-5-sulfonamide]
16 | 0.416 | 0.497 | Cc1noc(C)c1-c1cc(S(=O)(=O)NC2CCCC2)c2cc(NCC3CC3)c(=O)[nH]c2c1 [Compound 76, N-cyclopentyl-3-((cyclopropylmethyl)amino)-7-(3,5-dimethylisoxazol-4-yl)-2-oxo-1,2-dihydroquinoline-5-sulfonamide]
17 | 10 | 12.4 | Cc1noc(C)c1-c1cc(S(=O)(=O)N[C@@H]2CCC[C@@H]2c2ccc(F)cc2)c2cccnc2c1 [Compound 13, 7-(3,5-dimethylisoxazol-4-yl)-N-((1R,2R)-2-(4-fluorophenyl)cyclopentyl)quinoline-5-sulfonamide]
18 | 1.44 | 2.33 | Cc1noc(C)c1-c1cc(S(=O)(=O)N[C@@H]2CCC[C@H]2C(=O)NCCN)c2cccnc2c1 [Compound 72, (1R,2R)-N-(2-aminoethyl)-2-(7-(3,5-dimethylisoxazol-4-yl)quinoline-5-sulfonamido)cyclopen tanecarboxamide]
